Measurements as given in PubChem BioAssay (NCI).
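Each compound was tested at five concentrations against cells in 96-well plates for 48 hours. TGI is the concentration that stops growth completely.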

Tests used:
Test in all cases: NCI tumour cell line growth inhibition, 48 h
OVCAR-5 ovarian = tested on: OVCAR-5 ovarian
UACC-62 melanoma = tested on: UACC-62 melanoma
CAKI-1 renal = tested on: CAKI-1 renal
SNB-19 CNS = tested on: SNB-19 CNS
SK-MEL-28 melanoma = tested on: SK-MEL-28 melanoma
SK-OV-3 ovarian = tested on: SK-OV-3 ovarian
SR leukemia = tested on: SR leukemia
PC-3 prostate = tested on: PC-3 prostate
NCI-H460 lung = tested on: NCI-H460 lung
NCI-H522 lung = tested on: NCI-H522 lung
DU-145 prostate = tested on: DU-145 prostate
CCRF-CEM leukemia = tested on: CCRF-CEM leukemia
SF-295 CNS = tested on: SF-295 CNS
NCI-H226 lung = tested on: NCI-H226 lung
ACHN renal = tested on: ACHN renal
IGROV1 ovarian = tested on: IGROV1 ovarian
HS 578T breast = tested on: HS 578T breast
HOP-62 NSCLC = tested on: HOP-62 NSCLC
SNB-75 CNS = tested on: SNB-75 CNS
HL-60(TB) leukemia = tested on: HL-60(TB) leukemia
T-47D breast = tested on: T-47D breast
786-0 renal = tested on: 786-0 renal
MDA-N = tested on: MDA-N
SF-539 CNS = tested on: SF-539 CNS
SK-MEL-2 melanoma = tested on: SK-MEL-2 melanoma
U251 CNS = tested on: U251 CNS
SK-MEL-5 melanoma = tested on: SK-MEL-5 melanoma
NCI-H23 lung = tested on: NCI-H23 lung
SN12C renal = tested on: SN12C renal
MALME-3M melanoma = tested on: MALME-3M melanoma
UACC-257 melanoma = tested on: UACC-257 melanoma
RPMI-8226 leukemia = tested on: RPMI-8226 leukemia
LOX IMVI melanoma = tested on: LOX IMVI melanoma
OVCAR-8 ovarian = tested on: OVCAR-8 ovarian
MDA-MB-435 = tested on: MDA-MB-435
HT29 colon = tested on: HT29 colon
EKVX NSCLC = tested on: EKVX NSCLC
MCF7 breast = tested on: MCF7 breast
HCT-116 colon = tested on: HCT-116 colon
KM12 colon = tested on: KM12 colon
A549 NSCLC = tested on: A549 NSCLC
RXF 393 renal = tested on: RXF 393 renal
COLO 205 colon = tested on: COLO 205 colon
M14 melanoma = tested on: M14 melanoma
HCT-15 colon = tested on: HCT-15 colon
OVCAR-3 ovarian = tested on: OVCAR-3 ovarian
SF-268 CNS = tested on: SF-268 CNS
OVCAR-4 ovarian = tested on: OVCAR-4 ovarian
SW-620 colon = tested on: SW-620 colon
HCC-2998 colon = tested on: HCC-2998 colon
MDA-MB-231 breast = tested on: MDA-MB-231 breast
K-562 leukemia = tested on: K-562 leukemia
TK-10 renal = tested on: TK-10 renal
UO-31 renal = tested on: UO-31 renal
NCI/ADR-RES ovarian = tested on: NCI/ADR-RES ovarian
MOLT-4 leukemia = tested on: MOLT-4 leukemia
HOP-92 NSCLC = tested on: HOP-92 NSCLC
A498 renal = tested on: A498 renal

SMILES: C=C1OC(=O)[C@]2([C@@H](/C=C/C)C=CC(=O)[C@H]2O)[C@@H]1O
- TGI (OVCAR-5 ovarian): > 100 µM
- TGI (UACC-62 melanoma): > 100 µM
- TGI (CAKI-1 renal): > 100 µM
- TGI (SNB-19 CNS): > 100 µM
- TGI (SK-MEL-28 melanoma): > 100 µM
- TGI (SK-OV-3 ovarian): > 100 µM
- TGI (SR leukemia): > 100 µM
- TGI (PC-3 prostate): > 100 µM
- TGI (NCI-H460 lung): > 100 µM
- TGI (NCI-H522 lung): > 100 µM
- TGI (DU-145 prostate): > 100 µM
- TGI (CCRF-CEM leukemia): > 100 µM
- TGI (SF-295 CNS): > 100 µM
- TGI (NCI-H226 lung): > 100 µM
- TGI (ACHN renal): > 100 µM
- TGI (IGROV1 ovarian): > 100 µM
- TGI (HS 578T breast): > 100 µM
- TGI (HOP-62 NSCLC): > 100 µM
- TGI (SNB-75 CNS): > 100 µM
- TGI (HL-60(TB) leukemia): > 100 µM
- TGI (T-47D breast): > 100 µM
- TGI (786-0 renal): > 100 µM
- TGI (MDA-N): > 100 µM
- TGI (SF-539 CNS): > 100 µM
- TGI (SK-MEL-2 melanoma): > 100 µM
- TGI (U251 CNS): > 100 µM
- TGI (SK-MEL-5 melanoma): > 100 µM
- TGI (NCI-H23 lung): > 100 µM
- TGI (SN12C renal): > 100 µM
- TGI (MALME-3M melanoma): > 100 µM
- TGI (UACC-257 melanoma): > 100 µM
- TGI (RPMI-8226 leukemia): > 100 µM
- TGI (LOX IMVI melanoma): > 100 µM
- TGI (OVCAR-8 ovarian): > 100 µM
- TGI (MDA-MB-435): > 100 µM
- TGI (HT29 colon): > 100 µM
- TGI (EKVX NSCLC): > 100 µM
- TGI (MCF7 breast): > 100 µM
- TGI (HCT-116 colon): > 100 µM
- TGI (KM12 colon): > 100 µM
- TGI (A549 NSCLC): > 100 µM
- TGI (RXF 393 renal): > 100 µM
- TGI (COLO 205 colon): > 100 µM
- TGI (M14 melanoma): > 100 µM
- TGI (HCT-15 colon): > 100 µM
- TGI (OVCAR-3 ovarian): > 100 µM
- TGI (SF-268 CNS): > 100 µM
- TGI (OVCAR-4 ovarian): > 100 µM
- TGI (SW-620 colon): > 100 µM
- TGI (HCC-2998 colon): > 100 µM
- TGI (MDA-MB-231 breast): > 100 µM
- TGI (K-562 leukemia): > 100 µM
- TGI (TK-10 renal): > 100 µM
- TGI (UO-31 renal): > 100 µM
- TGI (NCI/ADR-RES ovarian): > 100 µM
- TGI (MOLT-4 leukemia): > 100 µM

SMILES: CCN(CC)CCOc1ccc(N2C(=O)c3cccc4cc([N+](=O)[O-])cc(c34)C2=O)cc1
- TGI (OVCAR-5 ovarian): 20.9 µM
- TGI (CAKI-1 renal): 26 µM
- TGI (SNB-19 CNS): 30.3 µM
- TGI (SK-MEL-28 melanoma): 25.3 µM
- TGI (SR leukemia): 32.8 µM
- TGI (PC-3 prostate): 35.2 µM
- TGI (NCI-H460 lung): 15.5 µM
- TGI (NCI-H522 lung): 19.7 µM
- TGI (DU-145 prostate): 24.3 µM
- TGI (CCRF-CEM leukemia): 30.8 µM
- TGI (SF-295 CNS): 21.1 µM
- TGI (NCI-H226 lung): 19 µM
- TGI (ACHN renal): 15.9 µM
- TGI (IGROV1 ovarian): 22.3 µM
- TGI (HS 578T breast): 42.5 µM
- TGI (HOP-62 NSCLC): 15.4 µM
- TGI (SNB-75 CNS): 35.1 µM
- TGI (HL-60(TB) leukemia): 28.2 µM
- TGI (T-47D breast): 39.3 µM
- TGI (786-0 renal): 18.3 µM
- TGI (MDA-N): 30.3 µM
- TGI (SF-539 CNS): 25.1 µM
- TGI (SK-MEL-2 melanoma): 33.7 µM
- TGI (U251 CNS): 22.6 µM
- TGI (SK-MEL-5 melanoma): 26.6 µM
- TGI (NCI-H23 lung): 26.5 µM
- TGI (SN12C renal): 40.9 µM
- TGI (MALME-3M melanoma): 26.9 µM
- TGI (UACC-257 melanoma): 27 µM
- TGI (LOX IMVI melanoma): 20.4 µM
- TGI (OVCAR-8 ovarian): 34.5 µM
- TGI (MDA-MB-435): 26.6 µM
- TGI (HT29 colon): 18.3 µM
- TGI (EKVX NSCLC): 35.4 µM
- TGI (MCF7 breast): 23.5 µM
- TGI (HCT-116 colon): 20.5 µM
- TGI (KM12 colon): 64.5 µM
- TGI (A549 NSCLC): 19.8 µM
- TGI (HOP-92 NSCLC): 44.1 µM
- TGI (COLO 205 colon): 64.2 µM
- TGI (M14 melanoma): 25.3 µM
- TGI (A498 renal): 25.4 µM
- TGI (HCT-15 colon): 26.1 µM
- TGI (SF-268 CNS): 27.1 µM
- TGI (OVCAR-4 ovarian): 31 µM
- TGI (SW-620 colon): 25.8 µM
- TGI (HCC-2998 colon): 25 µM
- TGI (MDA-MB-231 breast): 37.6 µM
- TGI (TK-10 renal): 26 µM
- TGI (UO-31 renal): 21.7 µM
- TGI (NCI/ADR-RES ovarian): 60 µM
- TGI (MOLT-4 leukemia): 11.3 µM

SMILES: CN1C(=O)CC2CCCN2C1=O (stereo not drawn)
- TGI (OVCAR-5 ovarian): > 100 µM
- TGI (UACC-62 melanoma): > 100 µM
- TGI (CAKI-1 renal): > 100 µM
- TGI (SNB-19 CNS): > 100 µM
- TGI (SK-MEL-28 melanoma): > 100 µM
- TGI (SK-OV-3 ovarian): > 100 µM
- TGI (SR leukemia): > 100 µM
- TGI (PC-3 prostate): > 100 µM
- TGI (NCI-H460 lung): > 100 µM
- TGI (NCI-H522 lung): > 100 µM
- TGI (DU-145 prostate): > 100 µM
- TGI (CCRF-CEM leukemia): > 100 µM
- TGI (SF-295 CNS): > 100 µM
- TGI (NCI-H226 lung): > 100 µM
- TGI (ACHN renal): > 100 µM
- TGI (IGROV1 ovarian): > 100 µM
- TGI (HS 578T breast): > 100 µM
- TGI (HOP-62 NSCLC): > 100 µM
- TGI (SNB-75 CNS): > 100 µM
- TGI (T-47D breast): > 100 µM
- TGI (786-0 renal): > 100 µM
- TGI (MDA-N): > 100 µM
- TGI (SF-539 CNS): > 100 µM
- TGI (SK-MEL-2 melanoma): > 100 µM
- TGI (U251 CNS): > 100 µM
- TGI (SK-MEL-5 melanoma): > 100 µM
- TGI (NCI-H23 lung): > 100 µM
- TGI (MALME-3M melanoma): > 100 µM
- TGI (UACC-257 melanoma): > 100 µM
- TGI (RPMI-8226 leukemia): > 100 µM
- TGI (LOX IMVI melanoma): > 100 µM
- TGI (OVCAR-8 ovarian): > 100 µM
- TGI (MDA-MB-435): > 100 µM
- TGI (HT29 colon): > 100 µM
- TGI (EKVX NSCLC): > 100 µM
- TGI (MCF7 breast): > 100 µM
- TGI (KM12 colon): > 100 µM
- TGI (A549 NSCLC): > 100 µM
- TGI (HOP-92 NSCLC): > 100 µM
- TGI (RXF 393 renal): > 100 µM
- TGI (COLO 205 colon): > 100 µM
- TGI (M14 melanoma): > 100 µM
- TGI (A498 renal): > 100 µM
- TGI (HCT-15 colon): > 100 µM
- TGI (OVCAR-3 ovarian): > 100 µM
- TGI (SF-268 CNS): > 100 µM
- TGI (OVCAR-4 ovarian): > 100 µM
- TGI (SW-620 colon): > 100 µM
- TGI (HCC-2998 colon): > 100 µM
- TGI (MDA-MB-231 breast): > 100 µM
- TGI (K-562 leukemia): > 100 µM
- TGI (TK-10 renal): > 100 µM
- TGI (UO-31 renal): > 100 µM
- TGI (NCI/ADR-RES ovarian): > 100 µM
- TGI (MOLT-4 leukemia): > 100 µM
